The text below walks through data of PubChem BioAssay (NCI).

Some test systems named below: NCI-H522 lung; NCI-H23 lung; MOLT-4 leukemia; SF-295 CNS; DU-145 prostate; NCI-H460 lung; HS 578T breast; A498 renal; MDA-MB-231 breast; HL-60(TB) leukemia.
Common to all, as to assay: DTP human tumour cell line panel, 48 h

Broadly, the GI50 is the concentration that inhibits growth by half. Usually TGI stands for the concentration at which net growth stops. High values mean less potent growth arrest, low ones more potent growth arrest.

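Five concentrations, 48 hours, 96-well plates. GI50 marks 50% less growth. TGI denotes the concentration required for complete inhibition of growth.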 A value given as a limit tells only on which side of the number the result lay.

With `O=C(CN(/C=C/C(=O)C(F)(F)F)c1ccc(Cl)cc1)c1ccc(Cl)c(Cl)c1`, the GI50 is 2.88 µM in the assay on NCI-H522 lung; 6.1 µM in the assay on NCI-H23 lung; 2.57 µM in the assay with MOLT-4 leukemia; 4.98 µM in the assay on SF-295 CNS; 16.7 µM with DU-145 prostate; 3.18 µM in the assay on NCI-H460 lung. Further, the results for the GI50 with HS 578T breast, in the assay on A498 renal and with MDA-MB-231 breast were 16.6 µM, 3.65 µM and 7.05 µM, respectively. For the same compound, the TGI in the assay on NCI-H522 lung worked out at 8.81 µM; with NCI-H23 lung it was 19.2 µM; with MOLT-4 leukemia, 10.5 µM; in the assay with SF-295 CNS it was 17.4 µM; in the assay with DU-145 prostate, 33.4 µM; in the assay with NCI-H460 lung it was 9.36 µM. The values for the TGI in the assay on HS 578T breast, with A498 renal and in the assay with MDA-MB-231 breast were 38.3 µM, 16.7 µM and 20.9 µM, respectively.
On to `CC/C(Cc1ccccc1)=C(\c1ccc(OCCN2CCCC2)cc1)c1ccc(OC(=O)NCc2ccccc2)cc1`, for which the GI50 with NCI-H522 lung is 1.99 µM; with NCI-H23 lung, 3.43 µM; in the assay with MOLT-4 leukemia, 2.23 µM; with SF-295 CNS, 1.7 µM; in the assay with DU-145 prostate, 2.14 µM; in the assay with NCI-H460 lung it was 1.89 µM. Besides, the values for the GI50 in the assay with HS 578T breast, with HL-60(TB) leukemia and in the assay on MDA-MB-231 breast were 1.97 µM, 1.93 µM and 1.84 µM, respectively. The concentration for total growth inhibition (TGI) in the assay on NCI-H522 lung was determined as 4.14 µM; with NCI-H23 lung it was 13.7 µM; in the assay with MOLT-4 leukemia, 5.66 µM; with SF-295 CNS, 3.14 µM; in the assay on DU-145 prostate it was 4.7 µM; with NCI-H460 lung it was 3.42 µM. Further, the TGI with HS 578T breast stood at 4.32 µM; in the assay with HL-60(TB) leukemia, 3.98 µM; in the assay on MDA-MB-231 breast it was 3.35 µM.
On to `COC(=O)Nc1nc2ccccc2[nH]1`, for which the TGI is over 56.2 µM with NCI-H23 lung; over 100 µM in the assay with MOLT-4 leukemia; 32.9 µM in the assay on SF-295 CNS; over 87 µM in the assay with DU-145 prostate; over 100 µM in the assay with NCI-H460 lung; over 95.4 µM with HS 578T breast. In addition, the TGI in the assay on HL-60(TB) leukemia is over 31.2 µM; with A498 renal, over 100 µM; in the assay on MDA-MB-231 breast, over 100 µM.
Take `ClCc1ccccc1Cn1cnc2ncnc(Cl)c21`: the GI50 is 2.83 µM in the assay with NCI-H522 lung; 4.97 µM in the assay with NCI-H23 lung; 1.65 µM in the assay with MOLT-4 leukemia; 7.93 µM in the assay with SF-295 CNS; 2.93 µM in the assay with DU-145 prostate; 13.5 µM with NCI-H460 lung. For the same compound, the results for the GI50 in the assay with HS 578T breast, with A498 renal and in the assay on MDA-MB-231 breast were 2.29 µM, 18.6 µM and 2.78 µM, respectively. Also, the TGI turned out to be 7.64 µM in the assay on NCI-H522 lung; 17.6 µM in the assay with NCI-H23 lung; 4.24 µM in the assay on MOLT-4 leukemia; 20.5 µM in the assay with SF-295 CNS; 10.1 µM with DU-145 prostate; 60.9 µM in the assay with NCI-H460 lung. Also, the TGI in the assay with HS 578T breast worked out at 5.96 µM; in the assay on A498 renal, 32.8 µM; with MDA-MB-231 breast, 6.97 µM.
Regarding `CC(=O)OC12C=C(C)C(C(C)C1)C1C(=O)N(CCN3CCCCC3)C(=O)C12` (stereo not given), the GI50 with NCI-H522 lung was over 50 µM; with NCI-H23 lung, over 50 µM; in the assay on MOLT-4 leukemia it was over 50 µM; in the assay on SF-295 CNS, over 50 µM; with DU-145 prostate, over 50 µM; in the assay on HS 578T breast, 48 µM. Moreover, the GI50 with HL-60(TB) leukemia, in the assay with A498 renal and in the assay with MDA-MB-231 breast was over 50 µM each time. Besides, the TGI in the assay on NCI-H522 lung, in the assay with NCI-H23 lung, in the assay with MOLT-4 leukemia, in the assay with SF-295 CNS, in the assay with DU-145 prostate and in the assay on HS 578T breast was over 50 µM in each case. The TGI in the assay on HL-60(TB) leukemia, with A498 renal and in the assay with MDA-MB-231 breast was over 50 µM each time.
On to `CCCCCCSSC(=S)N(CC)CC`, for which the GI50 is 1.66 µM with NCI-H522 lung; 27.8 µM in the assay on NCI-H23 lung; 17.7 µM with MOLT-4 leukemia; 17.4 µM in the assay on SF-295 CNS; 28.7 µM in the assay on DU-145 prostate; 28.3 µM with HS 578T breast. The GI50 with HL-60(TB) leukemia was 18.1 µM; in the assay on A498 renal, 70 µM; with MDA-MB-231 breast, 17.5 µM. The TGI in the assay with NCI-H522 lung is 21.3 µM; in the assay on NCI-H23 lung, 92.8 µM; in the assay with MOLT-4 leukemia, 44.5 µM; in the assay with SF-295 CNS, 51.1 µM; with DU-145 prostate, 92.9 µM; with HS 578T breast it was over 100 µM. The figures for the TGI in the assay on HL-60(TB) leukemia, in the assay on A498 renal and in the assay on MDA-MB-231 breast were 52.3 µM, over 100 µM and 39.2 µM, respectively.
Turning to `Cc1cc(N(CCOS(C)(=O)=O)CCOS(C)(=O)=O)ccc1C(=O)O`, the GI50 was 10.7 µM with NCI-H522 lung; 98.2 µM in the assay with NCI-H23 lung; over 100 µM in the assay on SF-295 CNS; over 100 µM with DU-145 prostate; 87.6 µM in the assay with NCI-H460 lung; over 100 µM in the assay with HS 578T breast. Further, in the assay on MDA-MB-231 breast, the GI50 is over 100 µM. The TGI in the assay on NCI-H522 lung, in the assay with NCI-H23 lung, in the assay with SF-295 CNS, in the assay with DU-145 prostate, with NCI-H460 lung and in the assay with HS 578T breast was over 100 µM in each case. Besides, in the assay on MDA-MB-231 breast, the TGI is over 100 µM.
`CCCCCCCCCCCCC(O)c1ccco1` (stereo not given): the GI50 in the assay on NCI-H522 lung was 20 µM; with NCI-H23 lung it was 16.2 µM; with MOLT-4 leukemia it was 25.4 µM; in the assay with SF-295 CNS, 19.7 µM; in the assay with DU-145 prostate, 19.3 µM; with NCI-H460 lung, 29.5 µM. Further, the GI50 in the assay with HS 578T breast was 16.2 µM; in the assay with MDA-MB-231 breast, 17.4 µM. Also, the TGI in the assay on NCI-H522 lung is 41 µM; with NCI-H23 lung it was 30.4 µM; in the assay with MOLT-4 leukemia, 52 µM; with SF-295 CNS, 39.3 µM; with DU-145 prostate, 35.1 µM; with NCI-H460 lung, over 100 µM. The TGI amounted to 35.7 µM in the assay on HS 578T breast and 32.7 µM in the assay with MDA-MB-231 breast.
Take `[N-]=[N+]=NCCCn1c2c(c3ccc([N+](=O)[O-])cc3c1=O)C(=O)c1cc(Br)ccc1-2`: the GI50 with NCI-H522 lung was over 100 µM; in the assay with NCI-H23 lung it was over 100 µM; in the assay with MOLT-4 leukemia it was 1.15 µM; in the assay on SF-295 CNS, 1.66 µM; with DU-145 prostate, 14.9 µM; in the assay with NCI-H460 lung, 8.35 µM. Further, the GI50 in the assay on HS 578T breast and with MDA-MB-231 breast was over 100 µM throughout. In addition, the TGI in the assay with NCI-H522 lung, in the assay on NCI-H23 lung, with MOLT-4 leukemia, in the assay on SF-295 CNS, in the assay on DU-145 prostate and in the assay on NCI-H460 lung was over 100 µM each time. The TGI with HS 578T breast and in the assay on MDA-MB-231 breast was over 100 µM each time.
